From US10610522B2, “Methods for retreating irritable bowel syndrome (IBS)” (Salix Pharmaceuticals, Inc., priority 2014, dated 2020)

Tests used:
IBS-D = test: TARGET 3: repeat treatment with rifaximin 550 mg TID in IBS-D (open-label, double-blind first and second repeat treatment); assay type: in vivo, human
Excerpt: This study consists of several treatment phases, and is initiated with a placebo run-in treatment during the Screening/Treatment 1 Phase. The placebo run-in is included in the design to disqualify subjects from enrollment if they no longer meet IBS symptom related entry criteria at the end of the Screening/Treatment 1 Phase (e.g., spontaneous improvement). […] Subjects who achieve treatment success in both IBS-related abdominal pain and stool consistency during at least two of the four week follow-up period are classified as responders and enter a treatment free Maintenance Phase 1. Non-responders are withdrawn from the study to provide an enriched population of subjects who respond to treatment with rifaximin. The treatment free Maintenance Phase 1 is variable in time (up to 18 weeks in total) and depends upon recurrence (e.g., absence of treatment success in both IBS related abdominal pain or stool consistency).
The subjects remain blinded to placebo received during Treatment 1. Subjects with recurrence enter the DBR Treatment 3 Phase.
Subjects are considered to have met recurrence criteria or have “relapsed” when they experience the recurrence of abdominal pain OR stool consistency for at least 3 weeks during a 4-week follow-up period. […] Therefore a recurrence of both symptoms is not required to define a “relapse”.
The study was a multi-center, randomized, double-blind, placebo-controlled trial in adult subjects with non-C IBS. The study duration was up to 51 weeks, with approximately 600 patients.
The Treatment 1 or Screening phase is the 7-13 days prior to study Day 1.
The proportion of subjects who were responders to repeat treatment in both IBS-related abdominal pain and stool consistency were evaluated during the 4 week treatment-free follow-up (Primary Evaluation Period, PEP) in the DBR (Double Blind Repeat) of the Treatment 3 Phase.
In this analysis, when a weekly response was absent for either the abdominal pain or stool consistency component for at least 3 weeks during a rolling consecutive 4-week assessment period; the subject is considered to have recurrence.
Further, the proportion of subjects who were responders to repeat treatment in both IBS-related abdominal pain and stool consistency during the PEP in the DBR Treatment 3 Phase and that had no recurrence through the end of Maintenance Phase 2 were assessed.
Further, the proportion of subjects were assessed who were responders to repeat treatment for IBS-related bloating during the PEP in the DBR Treatment 3 Phase.
The intent-to-treat (ITT) population included subjects who were randomized and received at least one dose of the study drug in the Treatment 3/DBR Treatment Phase. These subjects served as the primary analysis population. An efficacy analysis was conducted on the ITT population.
Double-Blind Phase of the Study (Response type—durable and maintained): Proportion that responded to the composite FDA Endpoint of relief in both IBS-related Abdominal Pain AND Stool Consistency during the PEP in the first repeat double-blind, placebo controlled treatment phase AND continued to respond without recurrence through the end of Week 6 following the second repeat double-blind, placebo controlled treatment.
Double-Blind Repeat Treatment and follow-up (Response type—durable): Proportion that responded to the composite FDA Endpoint of relief in both IBS-related Abdominal Pain AND Stool Consistency during the PEP in the first repeat double-blind, placebo controlled treatment phase AND continued to respond without recurrence through the end of Week 12, independent of any additional treatment.
At the end of Week 6, patients were assessed for response to treatment. […]

cytochrome P450 1A2 = target: T1, cytochrome P450 1A2 (Homo sapiens, UniProt P05177); test: In vitro cytochrome P450 inhibition; assay type: biochemical; conditions: 2 to 200 ng/mL
T1 sequence (P05177 1-516): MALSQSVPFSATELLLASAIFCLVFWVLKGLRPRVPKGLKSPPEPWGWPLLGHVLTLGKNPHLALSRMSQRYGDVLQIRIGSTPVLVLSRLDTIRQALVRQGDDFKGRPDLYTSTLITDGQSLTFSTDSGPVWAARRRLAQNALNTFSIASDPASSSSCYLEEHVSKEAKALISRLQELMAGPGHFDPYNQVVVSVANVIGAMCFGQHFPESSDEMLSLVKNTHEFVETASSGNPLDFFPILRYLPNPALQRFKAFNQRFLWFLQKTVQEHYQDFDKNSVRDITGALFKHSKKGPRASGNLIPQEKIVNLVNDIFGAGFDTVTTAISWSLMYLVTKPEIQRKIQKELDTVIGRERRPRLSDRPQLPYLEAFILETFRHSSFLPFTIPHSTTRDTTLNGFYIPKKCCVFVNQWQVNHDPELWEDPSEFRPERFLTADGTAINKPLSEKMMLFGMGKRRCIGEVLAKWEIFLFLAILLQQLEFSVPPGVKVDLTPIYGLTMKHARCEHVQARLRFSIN

[1] = TARGET 3, month following repeat treatment, Worst-Case Analysis, 550 mg TID, N = 328

CO[C@H]1/C=C/O[C@@]2(C)Oc3c(C)c(O)c4c(O)c(c5c(nc6cc(C)ccn65)c4c3C2=O)NC(=O)/C(C)=C\C=C\[C@H](C)[C@H](O)[C@@H](C)[C@@H](O)[C@@H](C)[C@H](OC(C)=O)[C@@H]1C [Rifaximin, (2S,16Z,18E,20S,21S,22R,23R,24R,25S,26S,27S,28E)-5,6,21,23,25 Pentahydroxy-27-methoxy-2,4,11,16,20,22,24,26-octamethyl-2,7-(epoxypentadeca-(1,11,13)trienimino) benzofuro (4,5-e) pyrido(1,2-a) benzimidazole-1,15(2H)-dione,25-acetate]
Median time to recurrence of IBS-related symptoms after initial 14-day treatment (IBS-D; TARGET 3): 8 weeks
Patients who responded to initial open-label treatment (abdominal pain and/or stool consistency) (IBS-D; TARGET 3, 550 mg TID 14 d, 1074 of 2579 patients): 41.6%
Monthly responders for abdominal pain and stool consistency after first repeat treatment (IBS-D; TARGET 3, 4 weeks following first repeat treatment, 550 mg TID): 33%
Abdominal Pain Responders: % (IBS-D; [1]): (51) %
Abdominal Pain Responders: n (IBS-D; [1]): 166
Abdominal Pain and Stool Consistency Responders: % (IBS-D; [1]): (33) %
Abdominal Pain and Stool Consistency Responders: n (IBS-D; [1]): 107
Stool Consistency Responders: % (IBS-D; [1]): (42) %
Stool Consistency Responders: n (IBS-D; [1]): 138
Sustained response for abdominal pain and stool consistency (IBS-D; TARGET 3, no recurrence 10 weeks after repeat treatment): 17%
Prevention of recurrence of abdominal pain and stool consistency responders (IBS-D; TARGET 3, no recurrence through second repeat treatment phase (20 weeks)): 13%
Responders without recurrence of abdominal pain or stool consistency symptoms for 22 weeks following initial treatment (IBS-D; TARGET 3, number of patients): 382
IBS-Related Abdominal Pain Responders (IBS-D; Weeks 3 through 6, Second Repeat Treatment Phase, LOCF Analysis): (52.5%)
IBS-Related Abdominal Pain and Stool Consistency Responders (IBS-D; Weeks 3 to 6, Double Blind First Repeat Treatment Phase, LOCF Analysis, ITT): 116/328
Adverse reaction: ALT increased (IBS-D; during repeat treatment): 2%
Adverse reaction: nausea (IBS-D; during repeat treatment): 2%
Adverse event rate of repeat treatments (IBS-D; repeat treatments 550 mg TID): generally below that of placebo
Effects on pathogen emergence, pathogen susceptibility, microbial population in stool or skin swab samples (IBS-D; up to 3 treatment cycles): no evidence of significant effects
Inhibition of cytochrome P450 1A2 (cytochrome P450 1A2): does not inhibit
